Reference: PMC6096477, “Structure of a Talaromyces pinophilus GH62 arabinofuranosidase in complex with AraDNJ at 1.25 Å resolution” (Acta Crystallographica. Section F, Structural Biology …, 2018)

Molecular target: T1, Talaromyces pinophilus GH62 arabinofuranosidase (Talaromyces pinophilus, UniProt A0A2H5BN17)
T1 construct: single-module GH62 enzyme, secreted from Aspergillus oryzae; about 35 kDa; amino-terminal residue Ser24; chain traced 25-325; 2 subunits in asymmetric unit; no tag mentioned
Test: isothermal titration calorimetry
Type: binding

T1 sequence (A0A2H5BN17 entry or part of it): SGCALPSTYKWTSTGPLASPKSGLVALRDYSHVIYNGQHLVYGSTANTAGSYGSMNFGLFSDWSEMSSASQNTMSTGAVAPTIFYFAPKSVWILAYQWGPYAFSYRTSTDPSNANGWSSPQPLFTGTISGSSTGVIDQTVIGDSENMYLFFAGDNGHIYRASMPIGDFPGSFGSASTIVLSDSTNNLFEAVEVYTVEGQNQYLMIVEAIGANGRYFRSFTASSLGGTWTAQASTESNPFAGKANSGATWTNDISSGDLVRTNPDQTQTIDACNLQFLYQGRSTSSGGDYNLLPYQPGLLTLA

Kd: 24 ± 0.4 µM
SMILES: OC[C@@H]1NC[C@H](O)[C@H]1O [AraDNJ, 1,4-dideoxy-l,4-imino-L-arabinitol]
